Earlier results in patent publication US20240156825A1, “USE OF SELECTIVE VEGFR2 AND FGFR1 INHIBITORS” (Fountain Therapeutics Inc., priority 2022, published 2024).
Like-named read-outs stand apart in the source and are kept apart here.

Legend:
any gene target = details: next lowest IC50 value to any gene target, read-out: Min IC50_μM, cited from earlier work
VEGFR2 = VEGFR2 (Homo sapiens, UniProt P35968); details: reported IC50 to VEGFR2, read-out: VEGFR2 IC50_μM, cited from earlier work
[1] = Table 3, selective inhibitors of VEGFR2

Sequence of VEGFR2 (P35968 20-1356, species assumed): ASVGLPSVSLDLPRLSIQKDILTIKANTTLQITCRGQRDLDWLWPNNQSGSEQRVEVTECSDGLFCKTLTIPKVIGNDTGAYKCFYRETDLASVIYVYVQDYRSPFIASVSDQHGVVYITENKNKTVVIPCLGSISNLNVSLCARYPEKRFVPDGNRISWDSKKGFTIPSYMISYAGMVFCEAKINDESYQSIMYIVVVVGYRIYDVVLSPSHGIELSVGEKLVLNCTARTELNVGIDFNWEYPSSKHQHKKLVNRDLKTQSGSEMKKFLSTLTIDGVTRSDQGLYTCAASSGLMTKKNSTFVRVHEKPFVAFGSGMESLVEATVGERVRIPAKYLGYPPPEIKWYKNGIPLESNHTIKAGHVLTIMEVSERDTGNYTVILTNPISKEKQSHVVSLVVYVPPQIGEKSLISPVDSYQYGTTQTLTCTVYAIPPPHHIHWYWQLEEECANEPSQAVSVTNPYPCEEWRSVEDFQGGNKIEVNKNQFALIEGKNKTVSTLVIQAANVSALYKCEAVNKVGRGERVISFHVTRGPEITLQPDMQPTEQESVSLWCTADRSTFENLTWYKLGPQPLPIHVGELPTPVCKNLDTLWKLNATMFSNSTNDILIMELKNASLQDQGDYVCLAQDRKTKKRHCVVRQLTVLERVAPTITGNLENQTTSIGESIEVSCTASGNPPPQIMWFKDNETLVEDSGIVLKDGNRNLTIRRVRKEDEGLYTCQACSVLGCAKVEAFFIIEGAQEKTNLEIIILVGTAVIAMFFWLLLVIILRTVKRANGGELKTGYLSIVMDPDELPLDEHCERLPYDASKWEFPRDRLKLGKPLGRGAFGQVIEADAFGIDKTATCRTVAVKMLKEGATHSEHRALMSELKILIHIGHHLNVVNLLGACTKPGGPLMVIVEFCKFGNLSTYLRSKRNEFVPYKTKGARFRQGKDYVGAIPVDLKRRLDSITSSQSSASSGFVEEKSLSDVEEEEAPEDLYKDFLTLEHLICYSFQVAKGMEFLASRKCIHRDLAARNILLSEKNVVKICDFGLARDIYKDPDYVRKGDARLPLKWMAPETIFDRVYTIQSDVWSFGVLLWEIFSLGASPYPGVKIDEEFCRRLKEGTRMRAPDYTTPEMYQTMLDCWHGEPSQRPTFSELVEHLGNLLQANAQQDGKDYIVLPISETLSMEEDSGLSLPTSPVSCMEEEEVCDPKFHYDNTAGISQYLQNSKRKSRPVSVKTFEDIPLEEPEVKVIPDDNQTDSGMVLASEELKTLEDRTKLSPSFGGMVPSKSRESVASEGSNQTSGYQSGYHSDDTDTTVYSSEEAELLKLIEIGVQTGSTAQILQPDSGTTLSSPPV

O=C(NCCc1ccc(O)c(Br)c1)/C(Cc1cc(Br)c(O)c(Oc2ccc(CCNC(=O)/C(Cc3cc(Br)c(O)c(-c4cc(C/C(=N\O)C(=O)NCCc5ccc(O)c(Br)c5)cc(Br)c4O)c3)=N/O)cc2Br)c1)=N/O [compound 71524406]
IC50 (any gene target; Table 3): 600 nM | IC50 (VEGFR2; [1]): 600 nM

Clc1cccc(Nc2cncc(-c3cncc(NCCCn4cccn4)c3)n2)c1 [compound 5330391]
IC50 (any gene target): 326 nM | IC50 (VEGFR2): 93.3 nM

COc1cc2c(Nc3cc(Cl)c(Br)cc3F)ncnc2cc1OC[C@@H]1CN2CCC[C@H]2CO1 [compound 66839071]
IC50 (any gene target; Table 3): 50 nM | IC50 (VEGFR2; [1]): 50 nM

COCn1cc(C2=C(c3cc(OC)c(OC)c(OC)c3)C(=O)NC2)c2ccccc21 [compound 24894887]
IC50 (any gene target): 3200 nM | IC50 (VEGFR2): 2300 nM

COc1cc2ncnc(Nc3ccccc3Cl)c2cc1OCCCC(=O)NO [compound 127027019]
IC50 (any gene target): 1260 nM | IC50 (VEGFR2): 857 nM

COc1cc2c(Nc3ccc(Br)c(Cl)c3F)ncnc2cc1OC[C@@H]1CN2CCOC[C@H]2CO1 [compound 9937516]
IC50 (any gene target; Table 3): 50 nM | IC50 (VEGFR2; [1]): 50 nM

COc1cc2c(Nc3ccc(Cl)c(Cl)c3)ncnc2cc1OCC1CN(S(C)(=O)=O)CCCO1 (centres unmarked) [compound 57802556]
IC50 (any gene target; Table 3): 50 nM | IC50 (VEGFR2; [1]): 50 nM

O=C(Nc1ccccc1)Nc1ccc2c(c1)NC(=O)/C2=C\c1ccc[nH]1 [compound 46182735]
IC50 (any gene target): 2.3 nM | IC50 (VEGFR2): 1 nM

COc1cc2c(Nc3cc(Cl)c(Cl)cc3F)ncnc2cc1OCC1CN(C)CCO1 (centres unmarked) [compound 57802547]
IC50 (any gene target; Table 3): 50 nM | IC50 (VEGFR2; [1]): 50 nM

COc1cc2c(Nc3ccc(Cl)c(Cl)c3)ncnc2cc1OC[C@@H]1CN2CCC[C@H]2CO1 [compound 57802678]
IC50 (any gene target): 50 nM | IC50 (VEGFR2): 50 nM

COc1cc2c(Nc3ccc(Br)c(Cl)c3)ncnc2cc1O[C@@H]1CCOC1 [compound 58013780]
IC50 (any gene target; Table 3): 50 nM | IC50 (VEGFR2; [1]): 50 nM

COc1cc2c(Oc3ccc(Nc4ccc(C(C)(C)C)cc4)cc3)ccnc2cc1OCCNCCO [compound 9850161]
IC50 (any gene target; Table 3): 69 nM | IC50 (VEGFR2; [1]): 69 nM

COc1cc(O)c2c(c1)CCC[C@H](O)CC(=O)/C=C\C[C@H](C)OC2=O [compound 53324451]
IC50 (any gene target): 7.23 nM | IC50 (VEGFR2): 5.8 nM

Cc1ccc(NC(=O)c2cc(C3CC3)[nH]n2)cc1Nc1nc2ccccc2n1-c1cc(N)ncn1 [compound 15949619]
IC50 (any gene target): 50 nM | IC50 (VEGFR2): 48 nM

C[C@@H](Nc1ncnc2[nH]c(-c3ccc(OCCCCC(=O)NO)cc3)cc12)c1ccccc1 [compound 24900507]
IC50 (any gene target): 100 nM | IC50 (VEGFR2): 100 nM

COc1cc2c(Nc3ccc(Br)c(Cl)c3F)ncnc2cc1O[C@@H]1C[C@H]2OC[C@H](OC)[C@H]2O1 [compound 134155171]
IC50 (any gene target; Table 3): 50 nM | IC50 (VEGFR2; [1]): 50 nM

COc1cc2c(Nc3ccc(Cl)c(Cl)c3)ncnc2cc1OCc1csc(C2CCN(C)CC2)n1 [compound 57802861]
IC50 (any gene target; Table 3): 50 nM | IC50 (VEGFR2; [1]): 50 nM

COc1cc2c(Nc3cc(O)c(C)cc3F)ncnc2cc1OCC1CCN(C)CC1 [compound 49860186]
IC50 (any gene target): 25 nM | IC50 (VEGFR2): 7 nM

CN(c1ccc2cn(C)nc2c1)c1ccnc(Nc2cccc(S(N)(=O)=O)c2)n1 [compound 24949548]
IC50 (any gene target): 2900 nM | IC50 (VEGFR2): 7.6 nM

O=C(CCCCCN1CCN(Cc2ccc(-c3cc4c(NCc5ccccc5)ncnc4[nH]3)cc2)CC1)NO [compound 24900714]
IC50 (any gene target; Table 3): 100 nM | IC50 (VEGFR2; [1]): 100 nM

COc1cc2c(Nc3ccc(Cl)c(Cl)c3)ncnc2cc1OC[C@H]1CN2CCC[C@H]2CO1 [compound 66838546]
IC50 (any gene target; Table 3): 50 nM | IC50 (VEGFR2; [1]): 50 nM

COc1cc2c(Nc3ccc(Cl)c(Cl)c3)ncnc2cc1OCC1CN(CC(N)=O)CCO1 (centres unmarked) [compound 57802603]
IC50 (any gene target; Table 3): 50 nM | IC50 (VEGFR2; [1]): 50 nM

COc1cc2c(Nc3ccc(Cl)c(Cl)c3)ncnc2cc1OCC1CC1 [compound 57802643]
IC50 (any gene target): 50 nM | IC50 (VEGFR2): 50 nM

O=C(CSC(=S)N1CCCCC1)Nc1cccc(NC(=O)c2ccccn2)c1 [compound 155562216]
IC50 (any gene target): 84 nM | IC50 (VEGFR2): 27 nM

COc1cc2ncnc(Oc3ccc4c(C(=O)NC5CC5)cccc4c3)c2cc1OC [compound 24823093]
IC50 (any gene target): 360 nM | IC50 (VEGFR2): 2.88 nM

CN=C(NC#N)N1CCOC(COc2cc3ncnc(Nc4ccc(Cl)c(C)c4)c3cc2OC)C1 (centres unmarked) [compound 89125605]
IC50 (any gene target; Table 3): 50 nM | IC50 (VEGFR2; [1]): 50 nM

Nc1c(-c2ccc(F)cc2)c(-c2ccncc2)nn1-c1c(Cl)cc(Cl)cc1Cl [compound 56924694]
IC50 (any gene target): 31 nM | IC50 (VEGFR2): 29 nM

COc1cc2c(Nc3ccc(Br)c(Cl)c3Cl)ncnc2cc1OCC1CN(C)CCO1 (centres unmarked) [compound 57802669]
IC50 (any gene target): 50 nM | IC50 (VEGFR2): 50 nM

Cc1nc2ccc(N(C)c3ccnc(Nc4cccc(S(N)(=O)=O)c4)n3)cc2n1C [compound 24949704]
IC50 (any gene target): 1700 nM | IC50 (VEGFR2): 63 nM

O=C(CCCCCCCNCc1cc(Oc2ccc(NC(=O)Nc3ccc(Cl)c(C(F)(F)F)c3)cc2)ccn1)NO [compound 25072218]
IC50 (any gene target): 100 nM | IC50 (VEGFR2): 100 nM

C[C@@H](Nc1ncnc2[nH]c(-c3ccc(C(=O)NO)cc3)cc12)c1ccccc1 [compound 24900715]
IC50 (any gene target; Table 3): 100 nM | IC50 (VEGFR2; [1]): 100 nM

COc1cc2c(Nc3ccc(Cl)c(Cl)c3)ncnc2cc1O[C@@H]1C[C@H]2OC[C@H](OC)[C@H]2O1 [compound 134140126]
IC50 (any gene target; Table 3): 50 nM | IC50 (VEGFR2; [1]): 50 nM

CCN=C(NC#N)N1CCOC(COc2cc3ncnc(Nc4ccc(Cl)c(Cl)c4)c3cc2OC)C1 (centres unmarked) [compound 57802565]
IC50 (any gene target; Table 3): 50 nM | IC50 (VEGFR2; [1]): 50 nM

COc1cc2c(Nc3ccc(F)c(Cl)c3F)ncnc2cc1OC[C@@H]1CN2CCOC[C@H]2CO1 [compound 66838567]
IC50 (any gene target; Table 3): 50 nM | IC50 (VEGFR2; [1]): 50 nM

CCNC(=O)Nc1ccc(Oc2ncccc2-c2ccnc(NC)n2)c2ccccc12 [compound 46890315]
IC50 (any gene target): 130 nM | IC50 (VEGFR2): 48 nM

COc1cc2ncnc(Nc3cccc(Cl)c3)c2cc1OCCC(=O)NO [compound 122195525]
IC50 (any gene target): 645 nM | IC50 (VEGFR2): 476 nM

CNC(=O)Nc1ccc(CNc2ncsc2C(=O)Nc2ccc3c(c2)OC(F)(F)O3)cn1 [compound 44442418]
IC50 (any gene target): 5 nM | IC50 (VEGFR2): 3 nM

COc1cc2c(Nc3ccc(Cl)cc3F)ncnc2cc1OCCN(C)c1ccncc1 [compound 5329026]
IC50 (any gene target): 100 nM | IC50 (VEGFR2): 6 nM

COc1cc(C2=C(c3c[nH]c4ccc(I)cc34)C(=O)NC2=O)cc(OC)c1OC [compound 46231220]
IC50 (any gene target): 29.5 nM | IC50 (VEGFR2): 24.9 nM

COc1cc2c(Nc3ccc(Cl)c(Cl)c3F)ncnc2cc1OC[C@@H]1CN(C)CC(=O)N1 [compound 57802639]
IC50 (any gene target; Table 3): 50 nM | IC50 (VEGFR2; [1]): 50 nM

COc1cc2c(Nc3ccc(Cl)c(Cl)c3)ncnc2cc1OCC1CN(S(=O)(=O)CCCCl)CCO1 (centres unmarked) [compound 57802656]
IC50 (any gene target): 50 nM | IC50 (VEGFR2): 50 nM

COc1ccccc1/C(C)=C/c1coc2nc(N)nc(N)c12 [compound 6477203]
IC50 (any gene target): 12800 nM | IC50 (VEGFR2): 10300 nM

CCCCN1CCOC(COc2cc3ncnc(Nc4ccc(Cl)c(Cl)c4)c3cc2OC)C1 (centres unmarked) [compound 57802833]
IC50 (any gene target; Table 3): 50 nM | IC50 (VEGFR2; [1]): 50 nM

COc1cc2c(Nc3ccc(Br)c(Cl)c3Cl)ncnc2cc1OCC1CN(C)C(C)(C)CO1 (centres unmarked) [compound 57802578]
IC50 (any gene target): 50 nM | IC50 (VEGFR2): 50 nM

COc1cc2c(Nc3ccc(C)c(Br)c3)ncnc2cc1OCC1CN(C)CCO1 (centres unmarked) [compound 57802550]
IC50 (any gene target; Table 3): 50 nM | IC50 (VEGFR2; [1]): 50 nM

COc1cc2c(Nc3ccc(Cl)cc3F)ncnc2cc1OCC1CCNCC1 [compound 73349643]
IC50 (any gene target): 60 nM | IC50 (VEGFR2): 50 nM

COc1cc2c(Nc3ccc(Cl)c(Cl)c3)ncnc2cc1OCc1nc(N2CCN(C)CC2)no1 [compound 57802605]
IC50 (any gene target; Table 3): 50 nM | IC50 (VEGFR2; [1]): 50 nM

CC(C)(Nc1nc(NO)nc(Nc2ccc3ncsc3c2)n1)c1ccccc1 [compound 10249989]
IC50 (any gene target): 420 nM | IC50 (VEGFR2): 40 nM

CCOc1cc2c(Nc3ccc(Cl)c(Cl)c3)ncnc2cc1OCC1CNCCO1 (centres unmarked) [compound 57802713]
IC50 (any gene target): 50 nM | IC50 (VEGFR2): 50 nM

COc1cc2c(Nc3ccc(Br)c(Cl)c3F)ncnc2cc1OC[C@@H]1CN2CCC[C@H]2CO1 [compound 57802905]
IC50 (any gene target; Table 3): 50 nM | IC50 (VEGFR2; [1]): 50 nM

COc1cc2c(Nc3ccc(Cl)c(Cl)c3)ncnc2cc1OCc1nc(N2CCNCC2)no1 [compound 57802679]
IC50 (any gene target): 50 nM | IC50 (VEGFR2): 50 nM

COc1cc2c(Nc3ccc(Cl)cc3F)ncnc2cc1OCCC1CCN(C)CC1 [compound 5329052]
IC50 (any gene target): 70 nM | IC50 (VEGFR2): 55 nM

COc1cc2c(Nc3ccc(Cl)c(Cl)c3)ncnc2cc1OC1C[C@@H]2CN(C)C[C@@H]2C1 (some centres unmarked) [compound 10253661]
IC50 (any gene target; Table 3): 50 nM | IC50 (VEGFR2; [1]): 50 nM

O=C(Nc1cccc(-c2cn3ccnc3c(NCc3ccncc3)n2)c1)Nc1cccc(C(F)(F)F)c1 [compound 11755812]
IC50 (any gene target): 35 nM | IC50 (VEGFR2): 33 nM

O=C1N/C=C/c2ccc(c(Br)c2)Oc2cc(cc(Br)c2O)CCNC(=O)/C(=N/O)Cc2ccc(c(Br)c2)Oc2cc(cc(Br)c2O)C/C1=N\O [compound 10396070]
IC50 (any gene target): 1500 nM | IC50 (VEGFR2): 1300 nM

COc1cc2ncnc(Nc3ccc(Br)cc3)c2cc1OCCCCC(=O)NO [compound 127028028]
IC50 (any gene target): 68 nM | IC50 (VEGFR2): 59 nM

CC(C)Oc1cc2c(Nc3ccc(Cl)c(Cl)c3)ncnc2cc1OCC1CN(C)CCO1 (centres unmarked) [compound 57802797]
IC50 (any gene target): 50 nM | IC50 (VEGFR2): 50 nM

COc1cc2c(Nc3ccc(Cl)c(Cl)c3)ncnc2cc1OC[C@@H]1CN2CCC[C@@H]2CO1 [compound 57802582]
IC50 (any gene target; Table 3): 50 nM | IC50 (VEGFR2; [1]): 50 nM

COc1cc2c(Nc3ccc(Cl)cc3F)ncnc2cc1OCCCN1CCOCC1 [compound 5329020]
IC50 (any gene target): 50 nM | IC50 (VEGFR2): 9 nM

COc1cc(C2=C(c3cn(COC(C)C)c4ccccc34)CNC2=O)cc(OC)c1OC [compound 24894996]
IC50 (any gene target): 5300 nM | IC50 (VEGFR2): 5200 nM

COc1cc2c(Nc3ccc(C)cc3F)ncnc2cc1OCC1CCNCC1 [compound 5329049]
IC50 (any gene target): 250 nM | IC50 (VEGFR2): 30 nM
